{"source": "patent US20100311803A1", "about": "“METHOD FOR REDUCING INFLAMMATORY RESPONSES AND INFLAMMATION” (Adelaide Research & Innovation Pty Ltd, priority 2006, published 2010)", "key": {"TNFα mRNA": {"system": "TNFα mRNA", "test": "TNFα mRNA expression in brain tissue after brain injury (RT-PCR)", "assay_type": "in vivo, rat", "conditions": "10^−5 mol/kg i.v. 30 minutes after injury; brain tissue at 6 hours after injury; normalised to rpL32 (FIG. 4)", "method": "(§1) In order to examine the effects on the cellular inflammatory response, N-acetyl-L-tryptophan was administered intravenously at a dose of 10^−5 mol/kg after injury. The expression of mRNA for the inflammatory cytokines IL-1β, IL-6 and TNFα in brain tissue was determined by reverse transcription followed by a polymerase chain reaction (RT-PCR). mRNA levels were normalised with respect to expression of rpL32. Brain tissue samples were collected at 6 hours after injury. Levels of expression of mRNA for the inflammatory cytokines were compared in non-injured animals (sham), injured animals administered drug vehicle alone (control), and injured animals administered a substance P receptor antagonist (NK1). mRNA expression was determined for IL-1β (FIG. 2), IL-6 (FIG. 3) and TNFα (FIG. 4)."}, "[1]": {"test": "Functional outcome and mortality of brain-injured animals", "assay_type": "in vivo, rat", "conditions": "brain injury; administered after injury", "method": "(§2) We chose to use the compound N-acetyl-L-tryptophan. To induce a primary brain injury a rat model of diffuse axonal injury was used (Heath D L and Vink R (1997). Magnesium sulphate improves neurologic outcome following severe closed head injury in rats. Neurosci Lett; 228: 175-8). N-acetyl-L-tryptophan was then administered intravenously 30 minutes after injury, whilst control animals received drug vehicle alone.\nIn order to examine the effects on the cellular inflammatory response, N-acetyl-L-tryptophan was administered intravenously at a dose of 10^−5 mol/kg after injury."}, "IL-6 mRNA": {"system": "IL-6 mRNA", "test": "IL-6 mRNA expression in brain tissue after brain injury (RT-PCR)", "assay_type": "in vivo, rat", "conditions": "10^−5 mol/kg i.v. 30 minutes after injury; brain tissue at 6 hours after injury; normalised to rpL32 (FIG. 3)", "method": "as §1"}, "[2]": {"test": "Evan's blue leakage into brain tissue (blood brain barrier) after diffuse axonal brain injury", "assay_type": "in vivo", "conditions": "rat diffuse axonal injury", "method": "as §2"}, "serum interleukin 6": {"system": "serum interleukin 6", "test": "Serum IL-6 levels (ELISA) after systemic insult (trauma; trauma plus hypoxia and hypotension)", "assay_type": "in vivo, rat", "conditions": "10^−5 mol/kg i.v. 30 minutes after the insult", "method": "A whole variety of severe insults are capable of triggering a systemic inflammatory response, and subsequent shock reaction. Two approaches were used in these studies, namely trauma (diffuse axonal injury), and an extended period of hypoxia and hypotension. N-acetyl-L-tryptophan was administered intravenously 30 minutes after the insult, whilst control animals received drug vehicle alone. A systemic inflammatory response, generated as a result of these triggers, was determined by a rise in serum interleukin 6 levels. Blood samples were collected at 6 hours after the insult. Changes in serum IL-6 levels were quantified using an enzyme-linked immunosorbent assay (ELISA). In order to examine the effects of an NK1 antagonist on the systemic inflammatory response, N-acetyl-L-tryptophan was administered intravenously at a dose of 10^−5 mol/kg 30 minutes after the insult. Serum levels of IL-6 were compared between animals that were not subject to any insult (sham), animals subject to an insult and then administered drug vehicle alone (control), and animals subject to an insult and administered a substance P receptor antagonist (NK1). IL-6 levels were determined following trauma (FIG. 5), and trauma followed by 15 minutes of hypoxia and hypotension (FIG. 6)."}, "[3]": {"test": "Functional outcome and recovery after trauma or trauma plus hypoxia and hypotension", "assay_type": "in vivo, rat", "conditions": "either trauma, or trauma plus hypoxia and hypotension", "method": "A whole variety of severe insults are capable of triggering a systemic inflammatory response, and subsequent shock reaction. Two approaches were used in these studies, namely trauma (diffuse axonal injury), and an extended period of hypoxia and hypotension. N-acetyl-L-tryptophan was administered intravenously 30 minutes after the insult, whilst control animals received drug vehicle alone. […] This level of recovery was never seen in the non-treated animals."}, "IL-1β mRNA": {"system": "IL-1β mRNA", "test": "IL-1β mRNA expression in brain tissue after brain injury (RT-PCR)", "assay_type": "in vivo, rat", "conditions": "10^−5 mol/kg i.v. 30 minutes after injury; brain tissue at 6 hours after injury; normalised to rpL32 (FIG. 2)", "method": "as §1"}}}
{"smiles": "CC(=O)N[C@@H](Cc1c[nH]c2ccccc12)C(=O)O", "note": "[N-acetyl-L-tryptophan]", "values": [{"measurement": "expression of TNFα mRNA in brain tissue with respect to non-injured animals", "setting": "TNFα mRNA", "value": "no significant differences"}, {"measurement": "functional outcome of the injured animals (motor, cognitive and behavioural outcomes)", "setting": "[1]", "value": "significantly improved"}, {"measurement": "mortality", "setting": "[1]", "value": "significant reduction"}, {"measurement": "expression of IL-6 mRNA in brain tissue with respect to non-injured animals", "setting": "IL-6 mRNA", "value": "no significant differences"}, {"measurement": "closure of the blood-brain barrier, dependence on dose", "setting": "[2]; intravenously 30 minutes after injury (FIG. 1)", "value": "dose-dependent manner"}, {"measurement": "leakage of Evan's blue dye into the brain tissue (closure of the blood brain barrier)", "setting": "[2]; intravenously 30 minutes after injury, vs vehicle control (FIG. 1)", "value": "reduced leakage"}, {"measurement": "serum IL-6 levels with respect to sham animals", "setting": "serum interleukin 6; trauma (diffuse axonal injury), blood at 6 hours (FIG. 5)", "value": "no significant differences"}, {"measurement": "serum IL-6 levels with respect to sham animals", "setting": "serum interleukin 6; trauma followed by 15 minutes of hypoxia and hypotension, blood at 6 hours (FIG. 6)", "value": "no significant differences"}, {"measurement": "time to normal physiological (spontaneous breathing) and behavioural (feeding and grooming) responses after treatment", "setting": "[3]", "value": "≤ 60", "unit": "minutes"}, {"measurement": "functional outcome of the animals", "setting": "[3]; i.v. 30 minutes after the insult", "value": "significantly improved"}, {"measurement": "expression of IL-1β mRNA in brain tissue with respect to non-injured animals", "setting": "IL-1β mRNA", "value": "no significant differences"}]}
